{"source": "patent US6706506B2", "about": "“Detection of epithelial cell cancers and precancerous conditions” (priority 2000, dated 2004)", "key": {"LRAT mRNA": {"tested_on": "LRAT mRNA", "assay": "Northern blot analysis of LRAT transcripts after culture with retinoic acid", "type": "cell-based, human", "conditions": "1 μM retinoic acid for 48 h; HUVEC, CCD42-SK, GM0970, HMEC, HNBE, NT2", "description": "(§1) Total cellular RNA was isolated from cultured cells using RNA Stat-60 according to the manufacturer's instruction (Tel-Test, Friendswood, Tex.). RNA was electrophoretically fractionated by size on 1% agarose/2.2 M formaldehyde gels, transferred to nylon filters by blotting, and attached to the filters using a UV Stratalinker 1800. The cDNA probes used in this analysis were radiolabeled with [^32P]dCTP using a random primer labeling kit (Boehringer Mannheim, Indianapolis, Ind.) according to the manufacturer's directions. Glyceraldehyde phosphate dehydrogenase cDNA was used as a probe for Northern blots as described previously (Guo, et al. Cancer Res. 1998, 58:166-176; Chen, et al. J. Biol. Chem. 1996, 271:14971-14980). AHD-2 cDNA, isolated from a murine liver cDNA library by this laboratory (Chen, Mol. Pharm. 1994, 46:88-96), was used as a probe; this cDNA encodes an aldehyde dehydrogenase class I enzyme, also called ALDH-1 in human. The human LRAT cDNA clone was an Eco RI fragment (840 bp) as described (Ruiz, et al. J. Biol. Chem. 1999, 274:3834-3841). The human neutral, bile salt independent retinyl ester hydrolase and the hepatic, bile sale dependent retinyl ester hydrolase were EST clones #g4069398 and #g2237729, respectively, from Genome Systems (St. Louis, Mo.). […]"}, "[1]": {"tested_on": "RA hydroxylase (CYP26) gene", "assay": "Northern blot analysis of RA hydroxylase (CYP26) gene in MCF-7", "type": "cell-based, human", "conditions": "MCF-7 following retinoic acid addition", "description": "as §1"}, "[2]": {"tested_on": "RA hydroxylase (CYP26) gene", "assay": "Northern blot analysis of RA hydroxylase (CYP26) gene in other tumor lines and normal cell strains", "type": "cell-based, human", "conditions": "other tumor lines or normal cell strains cultured with or without RA", "description": "as §1"}, "[3]": {"tested_on": "normal epithelial cell strains HMEC, ADO74, NHEK, OKP-7", "assay": "[^3H]retinol esterification in normal epithelial cell strains", "type": "cell-based, human", "conditions": "50 nM [^3H]retinol in the medium", "method": "(§2) All retinoid solutions and samples were handled under red or dim light. […] A separate control consisting of labeling medium without cells was included during the incubation period. Cells and one-fourth of the media were collected. Cells were washed once with 0.5 ml of phosphate-buffered saline (PBS) and removed from the monolayer in 0.5 ml PBS by scraping. Samples were stored at −70° C. until retinoid extraction. The cell numbers were counted from parallel dishes from each treatment at the time of cell harvest. The retinoids were extracted as described previously (McLean, et al. Clin. Chem. 1982, 28:693-696). Non-radiolabeled retinoid standards were added to the samples prior to extraction. Briefly, 350 μl acetonitrile/butanol (50:50, v/v), 0.1% butylated hydroxytoluene (BHT) was added to 0.5 ml of cells or medium samples. The mixtures were vortexed thoroughly for 30 sec. After addition of 300 μl of a saturated (1.3 kg/liter) K2HPO4 solution and thorough mixing, the samples were centrifuged for 10 min at 3000 g. […] The HPLC analysis was performed using a Waters Millenium system (Waters Corp.) to separate the various retinoids. […] Non-radiolabeled retinoid standards were run concurrently and monitored at a wavelength of 340 nm while a Packard A-500 radiochromatography detector (Packard Instruments, Downers Grove, Ill.) was used to monitor the labeled retinoids. […]"}, "[4]": {"tested_on": "fibroblast cell strains GM0970 and CCD42-SK", "assay": "[^3H]retinol metabolism in normal fibroblast cell strains", "type": "cell-based, human", "conditions": "15-24 h culture in the presence of [^3H]retinol", "method": "as §2"}, "[5]": {"tested_on": "human umbilical vein endothelial cells (HUVEC)", "assay": "[^3H]retinol metabolism in HUVEC", "type": "cell-based", "conditions": "15 h culture, 50 nM [^3H]retinol", "method": "as §2"}, "[6]": {"tested_on": "normal human bronchial epithelial cells (NHBE)", "assay": "[^3H]retinol esterification in NHBE", "type": "cell-based", "conditions": "15 h culture", "method": "as §2"}, "[7]": {"tested_on": "normal human epidermal keratinocytes (NHEK)", "assay": "[^3H]retinol esterification in NHEK", "type": "cell-based", "conditions": "15 h culture", "method": "as §2"}, "[8]": {"tested_on": "MCF-7 breast carcinoma cell line", "assay": "[^3H]retinol esterification in MCF-7", "type": "cell-based, human", "conditions": "MCF-7, 22 h culture, 50 nM", "method": "as §2"}, "[9]": {"tested_on": "SCC-12 skin squamous carcinoma line", "assay": "[^3H]retinol esterification in SCC-12", "type": "cell-based, human", "conditions": "SCC-12, 22 h culture, 50 nM", "method": "(§3) The retinoids were extracted as described previously (McLean, et al. Clin. Chem. 1982, 28:693-696). Non-radiolabeled retinoid standards were added to the samples prior to extraction. Briefly, 350 μl acetonitrile/butanol (50:50, v/v), 0.1% butylated hydroxytoluene (BHT) was added to 0.5 ml of cells or medium samples. The mixtures were vortexed thoroughly for 30 sec. After addition of 300 μl of a saturated (1.3 kg/liter) K2HPO4 solution and thorough mixing, the samples were centrifuged for 10 min at 3000 g. The upper organic layer was collected and transferred to an injector vial for automated HPLC analysis.\n(§4) The HPLC analysis was performed using a Waters Millenium system (Waters Corp.) to separate the various retinoids. Samples were applied to an analytical 5 μm reverse-phase C18 column (Vydac, Hesperia, Calif.) at a flow rate of 1.5 ml/min. The gradient consisted of a 35 min linear gradient from 15 mM ammonium acetate, pH 6.5, in water to 85% acetonitrile in a 10 min linear gradient from 85% acetonitrile to acetonitrile-dichloromethane (80:20) followed by a 15 min hold. Non-radiolabeled retinoid standards were run concurrently and monitored at a wavelength of 340 nm while a Packard A-500 radiochromatography detector (Packard Instruments, Downers Grove, Ill.) was used to monitor the labeled retinoids. […]"}, "[10]": {"tested_on": "SCC-40 carcinoma line from the soft palate", "assay": "[^3H]retinol esterification in SCC-40", "type": "cell-based, human", "conditions": "SCC-40, 22 h exposure, 50 nM", "method": "as §2"}, "OKP-7 cells": {"tested_on": "OKP-7 cells", "assay": "[^3H]retinol pulse chase in OKP-7", "type": "cell-based, human", "method": "(§5) For the pulse chase experiments, the cells were cultured for 24 h in 100 nM [^3H]retinol. Cells were then rinsed three times with warm PBS over a 30 minute period, and then incubated in growth medium without [^3H]retinol for an additional one to eight days. At various times following the removal of [^3H]retinol from the medium, dishes of cells were harvested and retinoids were extracted and subjected to HPLC analysis.\nas §3\nas §4, with “The gradient consisted of a 35 min linear gradient from 15 mM ammonium acetate, pH 6.5, in water to 85% acetonitrile in a 10 min linear gradient from 85% acetonitrile to acetonitrile-dichloromethane (80:20) followed by a 15 min hold.” left out\n(§6) Therefore, in this series of experiments the cells were cultured in the presence of 100 nM [^3H]retinol and 900 nM retinol in the medium for 24 h, followed by the removal of the [^3H]retinol from the medium. The cells were washed several times, and then dishes of cells were harvested at various times following the removal of [^3H]retinol from the medium, retinoids were extracted from the cells, and the [^3H]retinoids were analyzed by HPLC."}, "ADO74 cells": {"tested_on": "ADO74 cells", "assay": "[^3H]retinol pulse chase in ADO74", "type": "cell-based, human", "method": "as §5, §3\nas §4, with “The gradient consisted of a 35 min linear gradient from 15 mM ammonium acetate, pH 6.5, in water to 85% acetonitrile in a 10 min linear gradient from 85% acetonitrile to acetonitrile-dichloromethane (80:20) followed by a 15 min hold.” left out\nas §6"}, "[11]": {"tested_on": "SCC-40 squamous cell carcinoma line", "assay": "[^3H]retinol pulse chase in SCC-40", "type": "cell-based, human", "method": "as §5\n(§7) The retinoids were extracted as described previously (McLean, et al. Clin. Chem. 1982, 28:693-696). Non-radiolabeled retinoid standards were added to the samples prior to extraction. […]\n(§8) The HPLC analysis was performed using a Waters Millenium system (Waters Corp.) to separate the various retinoids. […] Non-radiolabeled retinoid standards were run concurrently and monitored at a wavelength of 340 nm while a Packard A-500 radiochromatography detector (Packard Instruments, Downers Grove, Ill.) was used to monitor the labeled retinoids. […]\nas §6"}, "[12]": {"tested_on": "MDA-MB-231 breast carcinoma line", "assay": "[^3H]retinol pulse chase in MDA-MB-231", "type": "cell-based, human", "method": "as §5, §7, §8, §6"}, "[13]": {"conditions": "OKP-7, four to eight days after [^3H]retinol removal"}, "[14]": {"conditions": "ADO74, four to eight days after [^3H]retinol removal"}}}
{"molecule": "CC1=C(/C=C/C(C)=C/C=C/C(C)=C/C(=O)O)C(C)(C)CCC1", "note": "[retinoic acid, all-trans retinoic acid]", "values": [{"measurement": "effect on levels of LRAT mRNA", "setting": "LRAT mRNA", "value": "a slight increase in LRAT mRNA"}, {"measurement": "expression of RA hydroxylase (CYP26) gene", "setting": "[1]", "value": "strongly expressed"}, {"measurement": "expression of RA hydroxylase (CYP26) gene", "setting": "[2]", "value": "not expressed at detectable levels"}]}
{"molecule": "[^3H]retinol", "values": [{"measurement": "time by which all of the [^3H]retinol in the medium had been esterified", "setting": "[3]", "value": "6 to 8", "unit": "h"}, {"measurement": "retinol metabolism", "setting": "[4]", "value": "Essentially no retinol metabolism occurred"}, {"measurement": "retinyl esters found", "setting": "[5]", "value": "only trace amounts of retinyl esters were found"}, {"measurement": "esterification of [^3H]retinol to retinyl esters", "setting": "[6]", "value": "extensive esterification"}, {"measurement": "esterification of [^3H]retinol to retinyl esters", "setting": "[7]", "value": "extensive esterification"}, {"measurement": "[^3H]retinol esterification", "setting": "[8]", "value": "did not exhibit [^3H]retinol esterification"}, {"measurement": "[^3H]retinol esterification", "setting": "[9]", "value": "some [^3H]retinol esterification"}, {"measurement": "[^3H]retinol esterification", "setting": "[10]", "value": "did not exhibit any significant [^3H]retinol esterification"}, {"measurement": "intracellular concentration of [^3H]retinyl esters", "setting": "OKP-7 cells; OKP-7, four days after removal of [^3H]retinol, 100 nM [^3H]retinol and 900 nM retinol for 24 h", "value": "approximately 26 μM"}, {"measurement": "intracellular concentration of [^3H]retinoic acid", "setting": "OKP-7 cells; [13]", "value": "1 to 2", "unit": "µM"}, {"measurement": "intracellular concentration of [^3H]retinol", "setting": "OKP-7 cells; [13]", "value": "3 to 10", "unit": "µM"}, {"measurement": "intracellular concentration of [^3H]retinyl esters", "setting": "ADO74 cells; ADO74, four days after removal of [^3H]retinol, 100 nM [^3H]retinol and 900 nM retinol for 24 h", "value": "~30", "unit": "µM"}, {"measurement": "intracellular concentration of [^3H]retinoic acid", "setting": "ADO74 cells; [14]", "value": "1 to 2", "unit": "µM"}, {"measurement": "intracellular concentration of [^3H]retinol", "setting": "ADO74 cells; [14]", "value": "3 to 10", "unit": "µM"}, {"measurement": "time after removal by which no [^3H]retinol is detectable intracellularly", "setting": "[11]; SCC-40", "value": "≤ 24", "unit": "h"}, {"measurement": "retinyl esters at the time of [^3H]retinol removal", "setting": "[11]; SCC-40, day 0", "value": "no detectable retinyl esters"}, {"measurement": "time after removal by which no [^3H]retinol is detectable intracellularly", "setting": "[12]; MDA-MB-231", "value": "≤ 24", "unit": "h"}, {"measurement": "retinyl esters at the time of [^3H]retinol removal", "setting": "[12]; MDA-MB-231, day 0", "value": "no detectable retinyl esters"}]}
